Laboratory results reported in PMC10989020, “Preclinical characterization of a non-peptidomimetic HIV protease inhibitor with improved metabolic stability” (Antimicrobial Agents and Chemotherapy, 2024).
Like-named read-outs stand apart in the source and are kept apart here.

Columns and labels:
[1] = Predicted clearance from rat liver microsome fractions; format: in vitro ADME
Cytotoxicity in NHBE = format: cell-based; details: human, NHBE cells
Experimental: (§1) Compound cytotoxicity assessment in MT-4 cells, primary CD4+ T lymphocytes, and MDMs was carried out using a protocol identical to the antiviral assay except uninfected cells were used and tested with higher concentration ranges of test compounds. Assessment of cytotoxicity in additional human cell lines (Gal-PC3, Gal-HepG2, HEp-2, Huh-7, MRC-5, HepG2-NTCP, Huh7-Lunet HCV 1b and 2a replicons, NHBE, A549-hACE2) and primary human PBMCs (resting and stimulated with PHA/IL-2) and hepatocytes have been described previously ([19]). For all cytotoxicity assays, the CC50 value for puromycin was determined as a positive internal control and to assess assay sensitivity in each cell type. The effect of tested compounds on cell viability was measured using a CellTiter-Glo readout, performed according to the manufacturer’s recommendations.

[2] = Predicted clearance from cynomolgus monkey liver microsome fractions; format: in vitro ADME
[3] = Cytotoxicity in primary human hepatocytes; format: cell-based
Experimental: as §1

RSV = assay: RSV-Fluc reporter antiviral assay; details: human respiratory syncytial virus, NHBE
Experimental: The hepatitis B virus (HBV) surface antigen (HBsAg) antiviral assay was performed as previously described ([28]) using ND-654 as a positive control. The respiratory syncytial virus (RSV) A2 HEp-2 antiviral assay was performed as previously described ([29]) using YM-53403 as a positive control. The severe acute respiratory syndrome coronavirus 2 (SARS-CoV-2) antiviral assay was performed as described previously ([30]) using remdesivir as a positive control.

[4] = Cytotoxicity in HepG2-NTCP; format: cell-based; details: human, HepG2-NTCP cells
Experimental: as §1

[5] = Cytotoxicity across human cell types (summary ranges); format: cell-based; details: read-out: mean CC50 range
Experimental: as §1

Cytotoxicity in HEp-2 = format: cell-based; details: human, HEp-2 cells
Experimental: as §1

HIV-1 IIIb [6] = assay: 5-day cytoprotection antiviral assay in MT-4 cells; format: cell-based
[7] = Cytotoxicity in cell lines of the non-HIV virus panel (summary); format: cell-based; details: human, HepG2-NTCP, Huh7-Lunet replicon cells, NHBE, A549-ACE2, read-out: CC50 range in the corresponding cell lines
Experimental: as §1

[8] = Cytotoxicity in uninfected MT-4 cells; format: cell-based, human; details: human, uninfected (mock infected) MT-4 T cells, MT-4 T cell line
Experimental: as §1

[9] = In vivo pharmacokinetics in rat; set-up: species or system Sprague-Dawley rat
Experimental: (§2) Preclinical pharmacokinetic studies were performed in male Sprague–Dawley rats, beagle dogs, and cynomolgus monkeys (three animals per dosing group in each species) following federal and Institutional Animal Care and Use Committee (IACUC) guidelines as described previously ([32]). […] The oral fraction absorbed (F%) was calculated using the formula:
(§3) %F=( PO Dose AUC0−inf) x (IV Dose)/(IV Dose AUC0−inf) x (PO Dose)×100%

[10] = Cytotoxicity in stimulated PBMCs; format: cell-based; details: human
Experimental: as §1

HCV-1b = assay: microbe, parasite or virus in culture; details: Hepatitis C virus, Huh-7
[11] = system: HIV-1LAI wild type and site-directed PR mutants; assay: microbe, parasite or virus in culture; format: cell-based
[12] = biological target: non-HIV aspartic proteases (BACE, cathepsin D, cathepsin E, pepsin, renin, and napsin); format: biochemical; details: IC50 considered equal to Ki(app)
Experimental: Except for the substrate used in the renin assay, all fluorogenic substrates and recombinant enzymes were purchased from R&D Systems and the assays were performed according to the manufacturer’s recommended procedure with minor changes. For the BACE1 assay, recombinant human BACE1 (50 nM) and test compound at various concentrations were added to a reaction buffer containing 20 mM sodium acetate at pH 4.8 with 0.06% Triton X-100 and 1% DMSO. After a 15-minute pre-incubation, the enzymatic reaction was initiated by the addition of fluorogenic substrate to a final concentration of 1 µM and a total volume of 100 µL. For the Cat D assay, after a 15-minute pre-incubation, the enzymatic reaction was initiated by the addition of the fluorogenic substrate to a final concentration of 4 µM and a total volume of 100 µL. […] Activated Cat E (0.5 nM) and test compound at various concentrations were added to the assay buffer containing 100 mM sodium acetate at pH 3.5 with 200 mM sodium chloride and 1% DMSO. After a 15-minute pre-incubation, the enzymatic reaction was initiated by the addition of the fluorogenic substrate to a final concentration of 20 µM and a total volume of 100 µL. […]
Enzymatic assay data were analyzed in GraphPad Prism (version 9.3.0) by curve fitting with a four-parameter logistic equation to determine inhibitor half-maximal inhibitory concentration (IC50) values.

[13] = Cytotoxicity in unstimulated PBMCs; format: cell-based; details: human, unstimulated (resting) PBMCs
Experimental: as §1

[14] = Cytotoxicity in monocyte-derived macrophages; format: cell-based; details: human, uninfected (mock infected) monocyte-derived macrophages
Experimental: as §1

HIV-1 IIIb [15] = assay: Dose-escalation resistance selection in MT-2 cells; format: cell-based
[16] = system: 20 HIV-1 clinical isolates; assay: Antiviral assay in PBMCs with HIV-1 clinical isolates (RT endpoint); format: cell-based; details: Human immunodeficiency virus 1, PBMC, 168 h, read-out: mean EC50
Experimental: Antiviral assays using fresh human PBMCs independently infected with a panel of clinical HIV-1 and HIV-2 isolates were performed by Southern Research as a contracted research study and assessed 7 days post-infection using reverse transcriptase (RT) endpoint assay. Antiviral assays using HIV-1 reporter viruses containing patient-derived sequences encoding all of PR and a portion of RT (amino acids 1–313) and conferring resistance to FDA-approved HIV PIs were performed by Monogram Biosciences Inc. (South San Francisco, CA) using their previously described Phenosense assay ([25]).

HIV-1 BaL = assay: p24 production antiviral assay in monocyte-derived macrophages; format: cell-based; details: Human immunodeficiency virus 1, Macrophage, HIV-1BaL infected
Excerpt: Antiviral assays performed in HIV-1BaL infected CD4 +T-lymphocytes and monocyte-derived macrophages (MDMs) have been described previously ([18]). Cell-free supernatants derived from the CD4 +T cell and macrophage cultures were harvested 7- and 12-days post-infection, respectively, and the amount of HIV present was quantified by p24 antigen enzyme-linked immunosorbent assay (ELISA, Perkin Elmer, Waltham, MA) performed according to the manufacturer’s protocol.

[17] = In vivo pharmacokinetics in dog; set-up: species or system Beagle dog
Experimental: as §2, §3

in vitro = format: cell-based; details: human
Experimental: as §1

[18] = system: panel of 49 patient-derived HIV-1 reporter viruses with PI resistance-associated substitutions; format: cell-based
[19] = Cytotoxicity in A549-hACE2; format: cell-based; details: human, A549-hACE2 cells
Experimental: as §1

In the case of `CC(C)(CC1(c2ccc(-c3cnn(C4CC4)n3)cc2)NC(=N)N(C(COC(=O)NC2(C(F)F)CC2)c2ccc(Cl)c(-c3ncnn3C(F)F)c2)C1=O)C(F)(F)F` (centres unmarked) [GS-9770], the “in vitro predicted blood CL” value [1] is reported as 0.07 L/h/kg, the CC50 (Cytotoxicity in NHBE) is reported as 4.7 ± 1.7 µM and the “in vitro predicted blood CL” value [2] is reported as 0.15 L/h/kg. The CC50 [3] was 34 ± 16 µM, the EC50 (RSV) was 2500 ± 600 nM and the CC50 [4] was 8.4 ± 2 µM. The CC50 ([5]; Gal-HepG2 and MRC-5 cells, five human cell lines (Gal-PC3, HEp-2, Huh7, Gal-HepG2, MRC-5)) was 13 to 20 µM, the CC50 ([5]; human, human cell lines and primary cells (15 cell types), across 15 different cell types) was 4.7 to 34 µM and the CC50 ([5]; primary human hepatocytes and PBMCs (stimulated and unstimulated)) was 9.1 to 34 µM. The CC50 (Cytotoxicity in HEp-2) was 17 ± 2 µM, the EC50 (HIV-1 IIIb [6]; Human immunodeficiency virus 1, IIIB, T-cell, 120 h) was 11 ± 2 nM and the “95% effective concentration (EC95)” value (HIV-1 IIIb [6]; calculated from MT-4/HIV-1IIIb EC50 and Hill coefficient) was 21.6 nM. The CC50 [7] was 4.7 to 15.1 µM, the CC50 [8] was 6.6 ± 1.3 µM and the “F% (oral bioavailability)” value ([9]; 1 mg/kg IV and 5 mg/kg PO) was 45.9 ± 9.8%. For the same compound, the “tolerability at the doses tested” value ([9]; 1 mg/kg IV, 4–5 mg/kg PO) was “well tolerated”, the clearance ([9]; male, Sprague-Dawley, plasma, 1 mg/kg IV) was 3.5 mL/min/kg and the half-life ([9]; male, Sprague-Dawley, plasma, 1 mg/kg IV and 5 mg/kg PO, read-out: Terminal t1/2 (converted)) was 636 ± 84 min. For the same compound, the Vd ([9]; male, Sprague-Dawley, plasma, 1 mg/kg IV, read-out: Vss) was 2.7 ± 0.3 L/kg, the bioavailability ([9]; male, Sprague-Dawley, plasma, oral, 5 mg/kg, 1 mg/kg IV and 5 mg/kg PO, read-out: F% (oral bioavailability)) was 49% and the CC50 [10] was 9.1 ± 0.6 µM. The EC50 (HCV-1b) was 10.8 ± 0.5 µM, the EC50 ([11]; Human immunodeficiency virus 1, PR L24I M46L A77I V82A) was 5.9 ± 3.2 nM and the EC50 ([11]; Human immunodeficiency virus 1, PR L24I M46L I64V A77I V82A) was 22.4 ± 7.3 nM. It also gave an EC50 ([11]; Human immunodeficiency virus 1, PR M46L A77I V82A) of 8.3 ± 1.8 nM, an EC50 ([11]; Human immunodeficiency virus 1, PR V82A) of 8.2 ± 3.2 nM and an EC50 ([11]; Human immunodeficiency virus 1, Wild type (WT) HIV-1LAI) of 3.1 ± 1.6 nM. For the same compound, the Ki ([12]; read-out: Ki(app), lower end of range over six non-HIV proteases) was 106 nM, the Ki ([12]; read-out: Ki(app), upper end of range over six non-HIV proteases) was > 100000 nM and the CC50 [13] was 9.1 ± 5.5 µM. For the same compound, the CC50 [14] was 16 ± 3 µM, the “GS-9770 concentration at variant first emergence” value (HIV-1 IIIb [15]; variant L24I M46L A77I V82A) was 100 nM and the “GS-9770 concentration at variant first emergence” value (HIV-1 IIIb [15]; variant M46L A77I V82A) was 100 nM. The EC50 [16] was 7.3 nM, the EC50 (HIV-1 BaL) was 11 ± 14 nM and the CL ([17]; 1 mg/kg IV, 1 mg/kg) was 1.1 ± 0.3 L/h/kg. The “tolerability at the doses tested” value ([17]; 1 mg/kg IV, 4–5 mg/kg PO) was “well tolerated”, the bioavailability ([17]; beagle, plasma, 1 mg/kg IV and 5 mg/kg PO, read-out: F% (oral bioavailability)) was 100 ± 20% and the half-life ([17]; beagle, plasma, 1 mg/kg IV and 5 mg/kg PO, read-out: Terminal t1/2 (converted)) was 402 ± 36 min. For the same compound, the Vd ([17]; beagle, plasma, 1 mg/kg IV, read-out: Vss) was 5 ± 0.5 L/kg, the clearance ([17]; beagle, plasma, iv, 1 mg/kg, 1 mg/kg IV) was 18.8 mL/min/kg and the CC50 (in vitro) was 15.1 ± 3 µM. The loss in susceptibility ([18]; virus 8, virus 11 and virus 42) was 3 fold, the “mutant vs wild-type HIV EC50 FC” value ([18]; virus 13 (L10I, M46I, G48V, I50V, V82A, L90M)) was 21 fold and the “mutant vs wild-type HIV EC50 FC” value ([18]; virus 29 (L10F/L, D30N, I54V, N88D, L90M)) was 12 fold. The “mutant vs wild-type HIV EC50 FC” value ([18]; virus 43 (L10I, M46L, I54V, V82A)) was 11 fold and the CC50 [19] was 7.8 ± 2.1 µM.
